Test results reported in PMC11672294, “The Antipsychotic Drug Aripiprazole Suppresses Colorectal Cancer by Targeting LAMP2a to Induce RNH1/miR‐99a/mTOR‐Mediated Autophagy and Apoptosis” (Advanced Science, 2024).
Where a name gives a salt, the structure may show the parent alone. Starred links: 1 amine or outer side, 2 acyl side, 3 side chain; linkers in the order of their positions; H or OH if unused. Positions of bridges follow the written chain, without caps; N, C: chain ends. Non-standard residues stand in square brackets, D forms with d. Residues, ends and D or L forms follow the SMILES beside them. *: point of attachment. pTerphenylCO(4''-OnC5H11) = CCCCCOc1ccc(-c2ccc(-c3ccc(C(=O)*)cc3)cc2)cc1; Orn(4R-OH,5R-OH) = O=C([C@H](C[C@@H](O)[C@@H](O)N[*:3])N[*:1])[*:2]; hTyr(3S-OH,4S-OH) = N[C@H](C(=O)O)[C@H](O)[C@@H](O)c1ccc(O)cc1; Pro(3S-OH,4S-Me) = C[C@H]1CN[C@H](C(=O)O)[C@H]1O; Hyp = O=C(O)[C@@H]1C[C@@H](O)CN1

Tested on: HT29
Conditions: 72 h, relative to DMSO, 10 µM, Relative cell viability (%)
How it was run: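 HT29 viability used WST-1 reduction (2 h, 37 °C, A450) after 72 h of treatment; screening compounds were tested singly at 10 µM, with dimethyl sulfoxide as the comparison.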

| SMILES | Relative cell viability (%) [%] |
| --- | --- |
| CCOC(=O)C1=C(COCCN)NC(C)=C(C(=O)OC)C1c1ccccc1Cl (stereo not drawn) [Amlodipine besylate (Norvasc)] | 75.42 |

Same assay, conditions: 72 h, relative to DMSO; 10 µM

| SMILES | Relative cell viability (%) [%] |
| --- | --- |
| CCCN[C@H]1CCc2nc(N)sc2C1 [Pramipexole dihydrochloride monohydrate] | 205.2 |
| CC[C@H](C)C(=O)O[C@H]1CCC=C2C=C[C@H](C)[C@H](CC[C@@H]3C[C@@H](O)CC(=O)O3)[C@H]21 [Mevastatin] | 86.67 |
| OC(Cn1cncn1)(Cn1cncn1)c1ccc(F)cc1F [Fluconazole] | 66.51 |
| CN(C)CCN1C(=O)c2cccc3cc(N)cc(c23)C1=O [Amonafide] | 8.879 |
| COc1ccc(C(=O)N2CCCC2=O)cc1 [Aniracetam] | 91.43 |
| Cn1cnc2c(F)c(Nc3ccc(Br)cc3F)c(C(=O)NOCCO)cc21 [MEK162 (ARRY-162, ARRY-438162)] | 36.75 |
| CCOC(=O)[C@H]1O[C@@H]1C(=O)N[C@@H](CC(C)C)C(=O)NCCC(C)C [Aloxistatin] | 100.9 |
| CCOc1cc2ncc(C#N)c(Nc3ccc(OCc4ccccn4)c(Cl)c3)c2cc1NC(=O)/C=C/CN(C)C [Neratinib (HKI-272)] | 97.84 |
| CCOC(=O)[C@H](CCc1ccccc1)N[C@@H](C)C(=O)N1Cc2cc(OC)c(OC)cc2C[C@H]1C(=O)O [Moexipril HCl] | 110.2 |
| COc1ccccc1OCC(O)COC(N)=O (stereo not drawn) [Methocarbamol] | 46.19 |
| CCOC(=O)[C@H](CCc1ccccc1)N[C@H]1CCc2ccccc2N(CC(=O)O)C1=O [Benazepril HCl] | 72.74 |
| COc1nc(N)nc2c1ncn2[C@@H]1O[C@H](CO)[C@@H](O)[C@@H]1O [Nelarabine] | 86.76 |
| Nc1ccc(/N=N/c2ccccc2)c(N)n1 [Phenazopyridine HCl] | 73.94 |
| CN1CCN2c3ccccc3Cc3ccccc3C2C1 (stereo not drawn) [Mianserin HCl] | 57.17 |
| NNC(=O)c1ccncc1 [Isoniazid] | 140.3 |
| C[C@H](NC(=O)C(=O)Nc1ccccc1C(C)(C)C)C(=O)N[C@@H](CC(=O)O)C(=O)COc1c(F)c(F)cc(F)c1F [Emricasan] | 86.75 |
| C#CCN[C@@H]1CCc2ccccc21 [Rasagiline Mesylate] | 103.1 |
| C#C[C@]1(O)CC[C@H]2[C@@H]3CCc4cc(OC)ccc4[C@H]3CC[C@@]21C [Mestranol] | 119.6 |
| N=C(N)NC(=O)c1nc(Cl)c(N)nc1N [Amiloride HCl] | 66.53 |
| COC(=O)C1=C(C)NC(C)=C(C(=O)O[C@@H]2CCCN(Cc3ccccc3)C2)[C@@H]1c1cccc([N+](=O)[O-])c1 (racemic) [Benidipine HCl] | 75.78 |
| CCC(COC(=O)c1cc(OC)c(OC)c(OC)c1)(c1ccccc1)N(C)C (stereo not drawn) [Trimebutine] | 107.3 |
| CCOC(=O)[C@H](CCc1ccccc1)N[C@H]1CCCN2CCC[C@@H](C(=O)O)N2C1=O [Cilazapril Monohydrate] | 112 |

| SMILES | Relative cell viability (%) [%] |
| --- | --- |
| CN1C[C@@H]2c3ccccc3Oc3ccc(Cl)cc3[C@H]2C1 (racemic) [Asenapine] | 50.93 |
| O=C(O)c1cc(=O)c2ccccc2o1 [Chromocarb] | 81.21 |
| COc1cc([C@@H]2c3cc4c(cc3[C@@H](O[C@@H]3O[C@@H]5CO[C@@H](C)O[C@H]5[C@H](O)[C@H]3O)[C@H]3COC(=O)[C@H]23)OCO4)cc(OC)c1O [Etoposide] | 117.9 |
| CC(C)(CO)[C@@H](O)C(=O)NCCCO [D panthenol] | 121.4 |
| CN1C2=CC(=O)/C(=N\NC(N)=O)C=C2CC1S(=O)(=O)O (stereo not drawn) [Carbazochrome sodium sulfonate (AC-17)] | 50.49 |
| CO[C@H]1/C=C/O[C@@]2(C)Oc3c(C)c(O)c4c(O)c(c(/C=N/N5CCN(C)CC5)c(O)c4c3C2=O)NC(=O)/C(C)=C\C=C\[C@H](C)[C@H](O)[C@@H](C)[C@@H](O)[C@@H](C)[C@H](OC(C)=O)[C@@H]1C [Rifampin] | 76.69 |
| Cc1ccc(NC(=O)c2ccc(CN3CC[C@H](N(C)C)C3)c(C(F)(F)F)c2)cc1Nc1nccc(-c2cncnc2)n1 [Bafetinib (INNO-406)] | 4.206 |
| NC(=O)[C@@H]1CCCN1C(=O)[C@H](Cc1cnc[nH]1)NC(=O)[C@@H]1CCC(=O)N1 [Protirelin] | 76.5 |
| O=C(O)c1cc(=O)[nH]c(=O)[nH]1 [Orotic acid (6-Carboxyuracil)] | 101.4 |
| CCc1c2c(nc3ccc(OC(=O)N4CCC(N5CCCCC5)CC4)cc13)-c1cc3c(c(=O)n1C2)COC(=O)[C@]3(O)CC [Irinotecan HCl Trihydrate] | 113.8 |
| CC(=O)[C@H]1CC[C@H]2[C@@H]3CC=C4C[C@@H](O)CC[C@]4(C)[C@H]3CC[C@]12C [Pregnenolone] | 94.21 |
| CC(=O)Oc1ccccc1C(=O)O [Aspirin] | 63.59 |
| O=c1oc2c(O)c(O)cc3c(=O)oc4c(O)c(O)cc1c4c23 [Ellagic acid] | 74.3 |
| COc1ccc(C[C@H](N)C(=O)N[C@H]2[C@@H](O)[C@H](n3cnc4c(N(C)C)ncnc43)O[C@@H]2CO)cc1 [Puromycin 2HCl] | 0 |
| CN1CCN2c3ncccc3Cc3ccccc3C2C1 (stereo not drawn) [Mirtazapine] | 177.9 |
| CC(=O)OCC(=O)[C@H]1CC[C@H]2[C@@H]3CCC4=CC(=O)CC[C@]4(C)[C@H]3CC[C@]12C [Deoxycorticosterone acetate] | 81.21 |
| O=C(O)c1ccc2c(c1)nc(Nc1cccc(Cl)c1)c1ccncc12 [CX-4945 (Silmitasertib)] | 120.8 |
| Nc1cc(C(Cl)=C(Cl)Cl)c(S(N)(=O)=O)cc1S(N)(=O)=O [Clorsulon] | 49.03 |
| C[C@]12CC[C@H](O)CC1=CC[C@@H]1[C@@H]2CC[C@]2(C)C(n3cnc4ccccc43)=CC[C@@H]12 [Galeterone] | 25.73 |
| CN(CCOc1ccc(CC2SC(=O)NC2=O)cc1)c1ccccn1 (stereo not drawn) [Rosiglitazone HCl] | 114.3 |
| C[C@@H]1C[C@H]2[C@@H]3CCC4=CC(=O)C=C[C@]4(C)[C@@]3(Cl)[C@@H](O)C[C@]2(C)[C@@]1(OC(=O)c1ccco1)C(=O)CCl [Mometasone furoate] | 144.2 |
| O=P1(N(CCCl)CCCl)NCCCO1 (stereo not drawn) [Cyclophosphamide Monohydrate] | 130.7 |

| SMILES | Relative cell viability (%) [%] |
| --- | --- |
| Clc1ccc(C(Cn2ccnc2)OCc2ccsc2Cl)c(Cl)c1 (stereo not drawn) [Tioconazole] | 135.7 |
| CCCc1nc2c(C)cc(-c3nc4ccccc4n3C)cc2n1Cc1ccc(-c2ccccc2C(=O)O)cc1 [Telmisartan] | 47.46 |
| CC1(C)S[C@@H]2[C@H](NC(=O)[C@H](NC(=O)N3CCN(S(C)(=O)=O)C3=O)c3ccccc3)C(=O)N2[C@H]1C(=O)O [Mezlocillin Sodium] | 90.303 |
| N=C(N)NC(=O)Cc1c(Cl)cccc1Cl [Guanfacine Hydrochloride] | 129.1 |
| Cc1cc(C)c2c(c1)[C@@H](N(Cc1cc(C(F)(F)F)cc(C(F)(F)F)c1)c1nnn(C)n1)CCCN2C[C@H]1CC[C@H](C(=O)O)CC1 [Evacetrapib (LY2484595)] | 40.29 |
| CC1=C(/C=C/C(C)=C/C=C/C(C)=C\C(=O)O)C(C)(C)CCC1 [Isotretinoin] | 60.28 |
| CC(C(=O)O)c1ccc(CC2CCCC2=O)cc1 (stereo not drawn) [Loxoprofen] | 82.91 |
| O=C(NCCO[N+](=O)[O-])c1cccnc1 [Nicorandil] | 198.8 |
| Cc1cccc(C)c1OCC(C)N (stereo not drawn) [Mexiletine HCl] | 84.85 |
| Cc1cnc(C(=O)O)c[n+]1[O-] [Acipimox] | 94.49 |
| OC[C@H]1OC(O)[C@H](O)[C@@H](O)[C@@H]1O (stereo partly drawn) [Dextrose] | 126.7 |
| CCCCCCCCCCCC1=C(O)C(=O)C=C(O)C1=O [Embelin] | 140.6 |
| CS(=O)(=O)CCNCc1ccc(-c2ccc3ncnc(Nc4ccc(OCc5cccc(F)c5)c(Cl)c4)c3c2)o1 [Lapatinib] | 94.3 |
| O=C(O)CCc1nc(-c2ccccc2)c(-c2ccccc2)o1 [Oxaprozin] | 63.03 |
| CC(C)(O)c1ccccc1CC[C@@H](SCC1(CC(=O)O)CC1)c1cccc(/C=C/c2ccc3ccc(Cl)cc3n2)c1 [Montelukast Sodium] | 74.85 |
| C/C(=C\C(=O)OCCCCCCCCC(=O)O)C[C@@H]1OC[C@H](C[C@@H]2O[C@H]2[C@@H](C)[C@H](C)O)[C@@H](O)[C@H]1O [Mupirocin] | 92.12 |
| NS(=O)(=O)NCCNc1nonc1C(=NO)Nc1ccc(F)c(Br)c1 [Epacadostat (INCB024360)] | 100.9 |
| CCCCCOc1ccc(-c2ccc(-c3ccc(C(=O)N[C@H]4C[C@@H](O)[C@@H](O)NC(=O)[C@@H]5[C@@H](O)[C@@H](C)CN5C(=O)[C@H]([C@@H](C)O)NC(=O)[C@H]([C@H](O)[C@@H](O)c5ccc(O)cc5)NC(=O)[C@@H]5C[C@@H](O)CN5C(=O)[C@H]([C@@H](C)O)NC4=O)cc3)cc2)cc1 [Anidulafungin (LY303366)] ({pTerphenylCO(4''-OnC5H11)}-[Orn(4R-OH,5R-OH)]T[Hyp][hTyr(3S-OH,4S-OH)]T[Pro(3S-OH,4S-Me)]; lactam 1-C) | 71.21 |
| CC(=O)N1CCN(c2ccc(OC[C@@H]3CO[C@@](Cn4ccnc4)(c4ccc(Cl)cc4Cl)O3)cc2)CC1 (racemic) [Ketoconazole] | 43.15 |
| CC[C@@H](C(N)=O)N1CCCC1=O [Levetiracetam] | 78.97 |
| Cc1ccc2c(Cl)cc(Cl)c(O)c2n1 [Chlorquinaldol] | 41.21 |
